{"source": "patent US10160772B2", "about": "“5,6-dihydro-4H-benzo[b]thieno-[2,3-d]azepine derivatives” (PULMOCIDE LIMITED, priority 2014, dated 2018)", "format_in_all_cases": "cell-based", "key": {"RSV A2 strain": {"tested_on": "RSV A2 strain", "experiment": "RSV A2-induced CPE in Hep2 cells", "details": "human respiratory syncytial virus", "procedure": "(§1) Biological Testing: Experimental Methods Assessment of RSV Induced CPE in Hep2 Cells\n(§2) Hep2 cells were seeded (10^3/well/50 μL) in 384-well plates (Catalogue number 353962, BD Falcon, Oxford, UK) in 5% serum free-DMEM containing 2 mM L-glutamine and 1 mM sodium pyruvate one day before infection. RSV A2 strain (#0709161v, NCPV, Public Health England, Wiltshire) or RSV B Washington strain (VR-1580, ATCC, Manassas, Va. 20108) virus solutions were prepared in serum free-DMEM with 2 mM L-glutamine and 1 mM sodium pyruvate, and then added (50 μL/well) to achieve a final virus concentration of 1 MOI for RSV A and 0.1MOI for RSV B. Simultaneously test compounds (0.5 μL DMSO solution) were added to 100 μL of Hep2 cell culture with virus solution to provide a final DMSO solution of 0.5%. Plates were incubated (37° C./5% CO2) for 5 days for studies using RSV A2 strain or 6 days for those using RSV B strain, and then resazurin sodium salt (5 μL of 0.03% solution; Sigma-Aldrich, Dorset, UK) was added to each well and the plate incubated for a further 6 hr (37° C. and 5% CO2). The fluorescence of each well [545 nm (excitation)/590 nm (emission)] was determined using a multi-scanner (Clariostar: BMG, Buckinghamshire, UK). The percentage inhibition for each well was calculated and the IC50, IC75 and IC90 values were calculated from the concentration-response curve generated for each test compound."}, "RSV B Washington strain": {"tested_on": "RSV B Washington strain", "experiment": "RSV B-induced CPE in Hep2 cells", "details": "human respiratory syncytial virus", "procedure": "as §1, §2"}, "[1]": {"tested_on": "RSV A2 F-protein expression", "experiment": "RSV A2 F-protein expression in BEAS2B bronchial epithelial cells", "details": "human respiratory syncytial virus, BEAS-2B, 72 h, read-out: RSV A2 F-protein IC50", "procedure": "Assessment of RSV F Protein Expression in BEAS2B Bronchial Epithelial Cells\nAn early event which follows the infection of epithelial cells by RSV is the expression of RSV F-protein on the cells' surface. BEAS2B cells (SV40-immortalised human bronchial epithelial cell line) were grown in 96 well plates. Once more than 70% confluent, cells were infected with RSV A2 (#0709161v, NCPV, Public Health England, Wiltshire) at an MOI of 0.01 in clear RPMI-1640 medium (Life technologies, Paisley, UK) with 2% FBS (Life technologies, Paisley, UK), and incubated for 3 days (37° C./5% CO2).\nSupernatant was aspirated and the cells were fixed with 4% formaldehyde (100 μL in PBS solution) for 20 min, washed 3 times with washing buffer (200 μL; PBS containing 0.05% Tween-20) and incubated with blocking solution (100 μL; 5% Marvel milk in PBS) for 1 hr. Cells were then washed with washing buffer (200 μL) and incubated for 1 hr at 37° C. with anti-RSV (2F7; mouse monoclonal, lot 160290, Cat. No. ab43812, Abcam plc, Cambridge, UK) F-fusion protein antibody (50 μL; prepared at a 1:1000 dilution in 5% milk/PBS-tween). After washing, cells were incubated with an HRP-conjugated anti-mouse IgG antibody (50 μL prepared at a 1:2000 dilution in 5% milk in PBS; lot 00095437, Cat. No. P0447, Dako UK Ltd, Cambridgeshire, UK) for 1 hr. Cells were washed twice with washing buffer and once with PBS. TMB substrate (100 μL; substrate reagent pack lot 320436, Cat. No. DY999, R&D Systems, Inc. Abingdon, UK) was then added and the reaction was stopped by the addition of aq sulfuric acid (50 μL; 2N). The resultant signal was determined colourimetrically (OD: 450 nm with a reference wavelength of 655 nm) in a microplate reader (Multiskan FC®, ThermoFisher Scientific). Cells were then washed and 1% crystal violet solution (50 μL; lot SLB4576, Cat. No. HT90132-1L, Sigma-Aldrich) was applied for 30 min. After washing with PBS (200 μL) 3 times, 1% SDS (100 μL) was added to each well, and plates were shaken lightly for 1 hr prior to reading the absorbance at 595 nm. The measured OD450-655 readings were corrected for cell number by dividing the OD450-655 by the OD595 readings. The percentage inhibition for each well was calculated and the IC50 value derived from the concentration-response curve generated for each test compound."}, "[2]": {"experiment": "Cell viability: resazurin assay in Hep2 cells", "details": "human, 5 days incubation", "procedure": "Cell Viability: Resazurin Assay Hep2 cells were seeded in 384-well plates (10^3/well/50 μL; BD Falcon Ref 353962) in FBS DMEM (5%, containing 2 mM L-glutamine and 1 mM sodium pyruvate) one day before experimentation. Serum-free DMEM (50 μL) was added to test wells while for control wells the media was removed and sterile water (100 μL) was added. Test compounds (0.5 μL DMSO solution) were added to give a final DMSO concentration of 0.5%. Hep2 cells were incubated with each test compound for 5 days (37° C./5% CO2 in 5% FBS) and then resazurin stock solution (5 μL; 0.03%) was added to each well and the plate incubated further for a further 6 hrs (37° C./5% CO2). The fluorescence of each well at 545 nm (excitation) and 590 nm (emission) was determined using a multi-scanner (Clariostar: BMG Labtech). The percentage loss of cell viability was calculated for each well relative to vehicle (0.5% DMSO) treatment. Where appropriate, a CC50 value was calculated from the concentration-response curve generated from the concentration-response curve for each test compound."}}, "data": [{"molecule": "CCc1cccc2nc(-c3cc4c(s3)-c3ccccc3N(C(=O)c3ccc(NC(=O)c5cc(C)cnc5N5CC6(CCOCC6)C5)cc3)CC4)[nH]c12", "note": "[Example 3, N-(4-(2-(7-Ethyl-1H-benzo[d]imidazol-2-yl)-5,6-dihydro-4H-benzo[b]thieno[2,3-d]azepine-6-carbonyl)phenyl)-5-methyl-2-(7-oxa-2-azaspiro[3.5]nonan-2-yl)nicotinamide]", "values": [{"measurement": "IC50", "setting": "RSV A2 strain; HEp-2, 120 h, read-out: RSV A2 CPE IC50", "value": 2.6, "unit": "nM"}, {"measurement": "inhibition at 0.01 µg/mL", "setting": "RSV A2 strain; HEp-2, read-out: RSV A2 CPE % Inhibition", "value": 100, "unit": "%"}, {"measurement": "IC50", "setting": "RSV B Washington strain; HEp-2, 144 h, read-out: RSV B CPE IC50", "value": 8.6, "unit": "nM"}, {"measurement": "inhibition at 1 µg/mL", "setting": "RSV B Washington strain; HEp-2, read-out: RSV B CPE % Inhibition", "value": 100, "unit": "%"}, {"measurement": "IC50", "setting": "[1]", "value": 0.78, "unit": "nM"}, {"measurement": "CC50 at 5 days", "setting": "[2]", "value": "> 14100", "unit": "nM"}]}]}
